# Results taken from publication PMC8456977, “Inclusion Complexes of Gold(I)‐Dithiocarbamates with β‐Cyclodextrin: A Journey from Drug Repurposing towards Drug Discovery” (Chemistry (Weinheim an Der Bergstrasse, Germany), 2021).
# Experiments:
# HL-60 = test: Quantification of drug sensitivity (CellTiter-Blue), HL-60; format: cell-based; details: HL-60 (non-T cell leukemia), 72 h, 30-fold excess 2-hydroxypropyl-β-cyclodextrin, combination DSF/ATM 1:1
# Experimental: (§1) Quantification of drug sensitivity (Figure 2A): Cell lines (including HT‐29) were obtained from ATCC or as gifts from other research groups at the DKFZ and checked for mycoplasma contamination and authenticity before use. Cell lines were seeded in 96‐well plates in RPMI‐1640 medium, supplemented with 10 % BCS (bovine calf serum) and 1 % Pen/Strep at a density of 2×10^4 cells/well. Disulfiram (DSF) and sodium aurothiomalate (ATM) were added at a fixed ratio of 1 : 1, formulated in a 30‐fold molar excess of 2HP‐β‐CD (2‐hydroxypropyl‐β‐cyclodextrin). ATM and DSF monotherapy was also done in the presence of 2HP‐β‐CD, to control for possible combination effects by 2HP‐β‐CD. All concentrations were applied in triplicate. After incubation at 37 °C for 72 h, CellTiter‐Blue (Promega) was added (10 μL/well). After incubation at 37 °C for 4 h, fluorescence (excitation filter: 550 nm, emission filter 590 nm) was determined in an Optima FLUOstar microplate reader (BMG Labtech). Mean values were calculated for each treatment and EC50 values were calculated from […] dose response curves.
# Calu-6 cells = test: Quantification of drug sensitivity (CellTiter-Blue), Calu-6; format: cell-based; details: Calu-6 (NSCLC), 72 h, 30-fold excess 2-hydroxypropyl-β-cyclodextrin, combination DSF/ATM 1:1
# Experimental: as §1
# Dose-Response Curves of ATM/DSF and 5
# Figure S2: Dose-response curves of the s toichiometric mixture of ATM and DSF (blue) as well
# as isolated 5 (red) for the treatment of Calu-6 cells (both in the presence of 30-fold excess of 2-
# (also on this page, place not known: Normalized Proliferation (CellTiter-Blue) stoichiometric) […]
# MeWo = test: Quantification of drug sensitivity (CellTiter-Blue), MeWo; format: cell-based; details: MeWo (melanoma), 72 h, 30-fold excess 2-hydroxypropyl-β-cyclodextrin, combination DSF/ATM 1:1
# Experimental: as §1
# COLO-357 = test: Quantification of drug sensitivity (CellTiter-Blue), COLO-357; format: cell-based; details: COLO-357 (pancreatic cancer), 72 h, 30-fold excess 2-hydroxypropyl-β-cyclodextrin, combination DSF/ATM 1:1
# Experimental: as §1
# HeLa = test: Quantification of drug sensitivity (CellTiter-Blue), HeLa; format: cell-based; details: HeLa (cervix carcinoma), 72 h, 30-fold excess 2-hydroxypropyl-β-cyclodextrin, combination DSF/ATM 1:1
# Experimental: as §1
# HCT 116 = test: Quantification of drug sensitivity (CellTiter-Blue), HCT 116; format: cell-based; details: HCT 116 (colon carcinoma), 72 h, 30-fold excess 2-hydroxypropyl-β-cyclodextrin, combination DSF/ATM 1:1
# Experimental: as §1
# SK-OV-3 = test: Quantification of drug sensitivity (CellTiter-Blue), SK-OV-3; format: cell-based; details: SK-OV-3 (ovarian carcinoma), 72 h, 30-fold excess 2-hydroxypropyl-β-cyclodextrin, combination DSF/ATM 1:1
# Experimental: as §1
# [1] = tested on: mitochondrial ROS in H838 cells (roGFP2-Orp1); test: ROS level in mitochondria, roGFP2-Orp1 sensor; format: cell-based; details: 12.5 μM, DMSO stock or up to 32-fold excess of SBE-β-CD
# Experimental: (§2) Measurement of ROS levels in cytoplasm and mitochondria (Figure 8): The effects of 33 and auranofin on roGFP2‐Orp1 oxidation were quantified in H838 cells stably expressing roGFP2‐Orp1 targeted either to cytoplasm or mitochondria as described in Ezerina et al.[28] Specifically, a 5 mM stock solution of 33 was prepared by directly dissolving solid 33 into 10 mM, 40 mM, 80 mM, and 160 mM solutions of SBE‐β‐CD (Biomol) in PBS (Gibco). A 100 mM auranofin (Sigma‐Aldrich) solution was prepared in DMSO (Sigma‐Aldrich). This was further diluted to 0.5 mM stock solutions of auranofin in 0 mM, 4 mM, 8 mM, and 16 mM SBE‐β‐CD in PBS. […] Non‐transduced H838 cells were seeded on the same plate to establish background fluorescence. The fluorescence intensity from these wells was subtracted from all the measurement results. To establish the signal baseline, the entire plate was measured every 3 min for 8 cycles in a CLARIOstar fluorescence plate reader (BMG Labtech), with excitation wavelengths of 400 nm and 485 nm, while measuring emission at 520 nm. […] The readout of the roGFP2 measurement is normalized to the positive (1.0) and the negative (0) controls using the following equation: OxDroGFP2=(I400sampleI485red)-(I400redI485sample)/(I400sample)I485red-I485ox+(I485sampleI400ox-I400red)
# (§3) where I400 and I485 are the signal intensities measured at 520 nm after excitation at 400 nm and 485 nm, respectively. […]
# [2] = tested on: cytoplasmic ROS in H838 cells (roGFP2-Orp1); test: ROS level in cytoplasm, roGFP2-Orp1 sensor; format: cell-based; details: 12.5 μM, DMSO stock or up to 32-fold excess of SBE-β-CD
# Experimental: as §2, §3
# [3] = Solubility / solubilization in solvents and cyclodextrin (observations); format: physicochemical
compound,measurement,setting,value
"O=C([O-])CC([S-])C(=O)[O-].[Au+].[Na+].[Na+] (stereo not shown) [ATM, sodium aurothiomalate]",EC50,HL-60,330 µM
same,EC50,Calu-6 cells,360 µM
same,EC50,MeWo,130 µM
same,EC50,COLO-357,96 µM
same,EC50,HeLa,440 µM
same,EC50,HCT 116,140 µM
same,EC50,SK-OV-3,260 µM
"CCN(CC)C(=S)SSC(=S)N(CC)CC [DSF, disulfiram]",EC50,HL-60; Homo sapiens,120 µM
same,EC50,Calu-6 cells; Homo sapiens,160 µM
same,EC50,MeWo; Homo sapiens,290 µM
same,EC50,"COLO-357; Homo sapiens, COLO357",82 µM
same,EC50,HeLa; Homo sapiens,320 µM
same,EC50,HCT 116; Homo sapiens,3.4 µM
same,EC50,SK-OV-3; Homo sapiens,340 µM
CC(=O)OC[C@H]1O[C@@H]([S-])[C@H](OC(C)=O)[C@@H](OC(C)=O)[C@@H]1OC(C)=O.CCP(CC)CC.[Au+] [auranofin],mitochondrial ROS (roGFP2-Orp1 oxidation),[1],high levels of ROS
same,cytoplasmic ROS (roGFP2-Orp1 oxidation),[2],high levels of ROS
"[Au(N,N‐diethyl)dtc]2 [compound 5]",EC50,Calu-6 cells,1.6 µM
same,cyclodextrin required for solubilization,[3],> 30 molar equivalents
same,solubility in common/organic solvents,"[3]; organic solvents including DMSO, ambient temperature",poor solubility
